{"source": "patent US20110171124A1", "about": "“In situ methods for monitoring the EMT status of tumor cells in vivo” (OSI Pharmaceuticals, Inc., priority 2009, published 2011)", "origin": "cited, not measured here", "test_system": "NSCLC", "details": "phase III, monotherapy, advanced treatment-refractory NSCLC patients", "data": [{"smiles": "C#Cc1cccc(Nc2ncnc3cc(OCCOC)c(OCCOC)cc23)c1", "note": "[erlotinib, [6,7-bis(2-methoxyethoxy)-4-quinazolin-4-yl]-(3-ethynylphenyl)amine]", "values": [{"measurement": "disease progression", "value": "delayed disease progression"}, {"measurement": "survival", "value": "significantly prolonged survival"}, {"measurement": "worsening of lung cancer-related symptoms", "value": "delayed worsening of lung cancer-related symptoms"}]}]}
